Results reported in US12077501B2, “Compounds and compositions for intracellular delivery of agents” (ModernaTX, Inc., priority 2017, dated 2024).
Values belong to the molecule of their own block, whether it stands above or below them.

Legend:
hEPO expression [1] = assay: hEPO expression in Cynomolgus monkeys; assay type: in vivo; conditions: 0.05 mg/kg
Description: Nanoparticle compositions of the disclosure, including an mRNA encoding hEPO and comprising a miR binding site, were administered to Cynomolgus monkeys at a dose of 0.05 mg/kg via a 60 min intravenous infusion.

[2] = system: hepatocytes and Kupffer cells; assay: Mouse liver immunohistochemistry (IHC) with GFP mRNA (FIGS. 11A, 11B); assay type: in vivo; conditions: LDLR knockout mouse liver, 8h after intravenous administration, 0.5 mpk (FIG. 11B), in contrast to MC3
Description: FIGS. 11A and 11B are a pair of images comparing the results of a mouse liver immunohistochemistry (IHC) using mRNA expressing green fluorescent protein (GFP) after administration of nanoparticle compositions containing Compound 4 and MC3.

hEPO expression [3] = assay: hEPO (miR126 + miR142) mRNA expression, Tables 8b-8e; assay type: in vivo
hEPO expression [4] = assay: hEPO expression in CD-1 mice compared with MC3; assay type: in vivo
Method in brief: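 Read-out was hEPO expression in CD-1 mice after a 0.5 mpk dose of nanoparticle composition including the test compound. An MC3 composition served as reference.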

[5] = Purity at start and after storage for 65 h at 25 °C or 37 °C; assay type: physicochemical
[6] = Lipid clearance: % dose remaining, Tables 7c and 8b-8e (species not given); assay type: in vivo
Method in brief: (§1)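 Nanoparticle compositions containing the test compound were dosed to CD-1 mice at 0.5 mpk, and hEPO expression was measured. Clearance data were collected from the same compositions.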

[7] = Lipid clearance: % dose remaining in liver of CD-1 mice; assay type: in vivo; conditions: intravenous, 0.5 mg/kg, CD-1 mouse, Table 8a
Method in brief: as §1

[8] = Encapsulation efficiency of RNA (QUANT-IT RIBOGREEN RNA assay); assay type: physicochemical; conditions: row marked **: Formulated with lipid:Chol:DOPE:PEG 1 30:38.5:30:1.5
Method in brief: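 Samples diluted to about 5 μg/mL RNA in TE buffer pH 7.5, treated with buffer or 2% Triton X-100 for 15 min at 37° C, then stained with RiboGreen (1:100). Fluorescence at about 480/520 nm, blank-subtracted; free RNA fraction is intact over Triton-disrupted signal.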

[9] = Particle size and polydispersity index of nanoparticle compositions (Zetasizer Nano ZS); assay type: physicochemical; conditions: row marked **: Formulated with lipid:Chol:DOPE:PEG 1 30:38.5:30:1.5
Description: A Zetasizer Nano ZS (Malvem Instruments Ltd, Malvem, Worcestershire, UK) can be used to determine the particle size, the polydispersity index (PDI) and the zeta potential of the nanoparticle compositions in 1×PBS in determining particle size and 15 mM PBS in determining zeta potential.

[10] = Characteristics of nanoparticle compositions formulated with PEG-DMG or PEG 1 over 4 weeks; assay type: physicochemical
Description: Formulations were prepared according to Table 13 and included an mRNA encoding hEPO and the particle size, polydispersity index and encapsulation efficiency were recorded on day 1 (week 1), day 8 (week 2), day 15 (week 3), and day 22 (week 4), of the study.

hEPO = hEPO expression in rats after i.v. administration of nanoparticle compositions (FIGS. 8A, 8B); assay type: in vivo, rat; conditions: rats (FIGS. 8A and 8B)
Description: PBS (phosphate buffered saline) is used as control. FIG. 8A compares the hEPO concentration after administration of nanoparticle compositions containing Compound 23, Compound 11, KL22, and MC3 at 2 mpk, i.v. administration. […] FIG. 8B illustrates the results of a dose response study using Compound 20, KL22, and MC3 at dose of 0.2, 0.5 and 1 mpk. […] In FIG. 8A, the numbers 1-5 refer to compositions containing the following: 1: Compound 23, 2: Compound 11, 3: KL22; 4: MC3; 5: PBS. In FIG. 8B, the numbers […] refer to compositions containing the following: 1: Compound 20, 0.2 mpk; 2: Compound 20, 0.5 mpk; 3: Compound 20, 1 mpk; 4: KL22, 0.2 mpk; 5: KL22, 0.5 mpk; 6: KL22, 1 mpk; 7: MC3, 0.2 mpk; 8: MC3, 0.5 mpk; 9: MC3, 1 mpk; 10: PBS.

LDL levels = LDL levels in LDLr-/- mice relative to untreated; assay type: in vivo; conditions: intravenous, Table 7b
rats = assay: Tolerability / toxicity in rats (FIGS. 8A, 8B); assay type: in vivo; conditions: 2 mg/kg dose
[11] = Week 1, 40:20:38.5:1.5 Lipid:DOPE:Chol:PEG 1
[12] = Week 1, 40:20:38.5:1.5 Lipid:DOPE:Chol:PEG-DMG
[13] = Week 2, 40:20:38.5:1.5 Lipid:DOPE:Chol:PEG 1
[14] = Week 2, 40:20:38.5:1.5 Lipid:DOPE:Chol:PEG-DMG
[15] = Week 3, 40:20:38.5:1.5 Lipid:DOPE:Chol:PEG 1
[16] = Week 3, 40:20:38.5:1.5 Lipid:DOPE:Chol:PEG-DMG
[17] = Week 4, 40:20:38.5:1.5 Lipid:DOPE:Chol:PEG 1
[18] = Week 4, 40:20:38.5:1.5 Lipid:DOPE:Chol:PEG-DMG

- Purity % 25° C. no shaking t = 65 h ([5]; after storage for 65 h at 25° C., no shaking): 99%
- Purity % 37° C. shaking t = 65 h ([5]; after storage for 65 h at 37° C., shaking): 99%
- Purity % t = 0 h ([5]; beginning of the study, 25° C.): 98%
- % Dose Remaining (liver, 24 h) ([6]; Table 8b): 39.23%
- % Dose Remaining (liver, 24 h) ([6]; Table 8c): 37.05%
- % Dose Remaining (liver, 24 h) ([6]; Table 8d): 43.02%
- % Dose Remaining 24 hr [7]: 60.36%
- EE (%) ([8]; Table 1e): 98.6%
- EE (%) ([8]; Table 1f): 98.8%
- EE (%) ([8]; Table 1d): 99.1%
- PDI ([9]; Table 1e): 0.19
- Size (nm) ([9]; Table 1e): 99.2 nm
- PDI ([9]; Table 1f): 0.21
- Size (nm) ([9]; Table 1f): 111.5 nm
- PDI ([9]; Table 1d): 0.23
- Size (nm) ([9]; Table 1d): 101.5 nm
- EE (%) [10, 11]: 98%
- PDI [10, 11]: 0.22
- Size (nm) [10, 11]: 101.5 nm
- EE (%) [10, 12]: 99%
- PDI [10, 12]: 0.23
- Size (nm) [10, 12]: 79.9 nm
- EE (%) [10, 13]: 97%
- PDI [10, 13]: 0.21
- Size (nm) [10, 13]: 104.1 nm
- EE (%) [10, 14]: 99%
- PDI [10, 14]: 0.21
- Size (nm) [10, 14]: 79.9 nm
- EE (%) [10, 15]: 97%
- PDI [10, 15]: 0.2
- Size (nm) [10, 15]: 100.4 nm
- EE (%) [10, 16]: 99%
- PDI [10, 16]: 0.22
- Size (nm) [10, 16]: 77.3 nm
- EE (%) [10, 17]: 97%
- PDI [10, 17]: 0.2
- Size (nm) [10, 17]: 101.9 nm
- EE (%) [10, 18]: 99%
- PDI [10, 18]: 0.21
- Size (nm) [10, 18]: 73.6 nm
Compound: CCCCCCCCCN(CCCCCCCCC)CCN(CCCCCCCCC)CC(=O)N1CCN(C(=O)CN(CCCCCCCCC)CCCCCCCCC)CC1 [Compound 4, 2-(Dinonylamino)-1-(4-(N-(2-(dinonylamino)ethyl)-N-nonylglycyl)piperazin-1-yl)ethan-1-one]
- levels of hEPO expression compared to MC3 (hEPO expression [1]): improved levels of hEPO expressions
- GFP protein expression in liver cell types (IHC) [2]: less protein expression in Kupffer cells
- AUC (hEPO expression [3]; Table 8b): 6.7e+07 pg·h/mL
- AUC (hEPO expression [3]; Table 8c): 8.47e+07 pg·h/mL
- AUC (hEPO expression [3]; Table 8d): 1.83e+09 pg·h/mL
- AUC (mIU/mL*h) (hEPO expression [3]; lipid:Chol:PEG 1 50:47.5:2.5, Table 8e): 2.76E+08 mIU/mL*h
- AUC (p/s*h) CD-1 mice 0.5 mpk (hEPO expression [4]; intramuscular, title: 0.01 mg/kg, Table 7f): 366551 p/s*h
- AUC (p/s*h) CD-1 mice 0.5 mpk (hEPO expression [4]; subcutaneous, 0.5 mg/kg, Table 7g): 859874 p/s*h

Compound: CCCCCCCCCCCCN(CCCCCCCCCCCC)CCN(CCCCCCCCCCCC)CCN1CCN(CCN(CCCCCCCCCCCC)CCCCCCCCCCCC)CC1 [KL22, N1-[2-(didodecylamino)ethyl]-N1,N4,N4-tridodecyl-1,4-piperazinediethanamine, reference compound]
- hEPO expression levels in rats (hEPO): do not express hEPO in rats
- LDL levels lipid/untreated LDLr−/− mice 0.5 mpk, LDLr (LDL levels): 0.51
- toxicity (rats): toxic
